This passage reports M.I.C. results from US5064811A, “De-mannosyl teicoplanin derivatives” (Gruppo LePetit S.p.A., priority 1987, dated 1991).

Each structure is given as a SMILES string. Where only a bound is given, the exact number is not on record here.

The subject of test [1] is Neisseria gonorrhoeae L997 ISM68/126. Description: MIC, standard broth dilution test. The class given is cell-based. The conditions noted are these: GC base broth +1% Isovitalex, 48 h, CO2-enriched atmosphere; inoculum about 10^4-10^5 cfu/ml. Background: Broth dilution looks for growth in wells or tubes with falling amounts of substance.
For test [2], the system named is Staph. aureus L165. Description: MIC, standard broth dilution test. The class given is cell-based, Staphylococcus aureus. The conditions noted are these: Isosensitest broth, 24 h.
For test [3], the system named is Staph. haemolyticus L602 (clinical isolate). The experiment in a line: MIC, standard broth dilution test. The class given is cell-based, Staphylococcus haemolyticus. The conditions noted are these: Isosensitest broth, 24 h; inoculum about 10^4-10^5 cfu/ml.
Test [4] deals with Haemophilus influenzae L 970 type b ATCC 19418. Description: MIC, standard broth dilution test. The class given is cell-based. Particulars: Brain Heart broth +1% Supplement C, 48 h; inoculum about 10^4-10^5 cfu/ml.
In test [5] the test system is Strep. pneumoniae L44 UC41. The experiment in a line: MIC, standard broth dilution test. Format: cell-based, Streptococcus pneumoniae. The conditions noted are these: Todd-Hewitt broth, 24 h; inoculum about 10^4-10^5 cfu/ml.
The subject of test [6] is Strep. faecalis L149 ATCC 7080. Description: MIC, standard broth dilution test. Format: cell-based, Streptococcus faecalis. The conditions noted are these: Isosensitest broth, 24 h; inoculum about 10^4-10^5 cfu/ml.
The test system of test [7] is Staph. epider midis L147 ATCC 12228 (coagulase negative). Description: MIC, standard broth dilution test. The class given is cell-based, Staphylococcus epidermidis. Particulars: Isosensitest broth, 24 h; inoculum about 10^4-10^5 cfu/ml.
Test [8] concerns Escherichia coli L47 SKF 12140. The experiment in a line: MIC, standard broth dilution test. The class given is cell-based. The conditions noted are these: Isosensitest broth, 24 h; inoculum about 10^4-10^5 cfu/ml.
Test [9] relates to Pseudomonas aeruginosa L4 ATCC10145. Description: MIC, standard broth dilution test. Format: cell-based. The conditions noted are these: Isosensitest broth, 24 h (Gram-negative bacteria); inoculum about 10^4-10^5 cfu/ml.
The test system of test [10] is Strep. pyogenes L49 C203. Description: MIC, standard broth dilution test. Particulars: Todd-Hewitt broth, 24 h; inoculum about 10^4-10^5 cfu/ml. Format: cell-based, Streptococcus pyogenes.
Test [11] has as its system Proteus vulgaris L79 X19H ATCC881. The class given is cell-based. The conditions noted are these: Isosensitest broth, 24 h (Gram-negative bacteria); inoculum about 10^4-10^5 cfu/ml.
In test [12] the test system is Strep. mitis L796 (clinical isolate). The experiment in a line: MIC, standard broth dilution test. The class given is cell-based, Streptococcus mitis. The conditions noted are these: Todd-Hewitt broth, 24 h; inoculum about 10^4-10^5 cfu/ml.
Where [13] appears, read: Staph. aureus (30% bovine serum).
The mark [14] stands for this setting: Staph. aureus L165, inoculum about 10^4-10^5 cfu/ml.

In the case of `CC(=O)N[C@H]1[C@H](OC2c3ccc(c(Cl)c3)Oc3cc4cc(c3O[C@@H]3O[C@H](CO)[C@@H](O)[C@H](O)[C@H]3NC(=O)CCCCCCCC(C)C)Oc3ccc(cc3Cl)CC3NC(=O)C(N)c5ccc(O)c(c5)Oc5cc(O)cc(c5)C(NC3=O)C(=O)NC4C(=O)NC3C(=O)NC2C(=O)NC(C(=O)O)c2cc(O)cc(O)c2-c2cc3ccc2O)O[C@H](CO)[C@@H](O)[C@@H]1O` (some centres unmarked) [DM-TA2-5, de-mannosyl teicoplanin complex component 5], the M.I.C. is 32 microgram/ml in test [1]; 0.125 microgram/ml in [2] (Staph. aureus (10^6 cfu/ml)); 0.5 microgram/ml in test [2] (setting [13]); 0.063 microgram/ml in test [2] (setting [14]); 0.25 microgram/ml in [3]; 32 microgram/ml in test [4]. Also, the M.I.C. in [5] is on record as 0.063 microgram/ml; in test [6], 0.063 microgram/ml; in test [7], 0.063 microgram/ml; in [8], above 128 microgram/ml; in test [9] it was above 128 microgram/ml; in [10], 0.063 microgram/ml. The M.I.C. is given as above 128 microgram/ml in test [11] and 0.063 microgram/ml in test [12].

For the compound `CCC(C)CCCCCCC(=O)N[C@H]1[C@H](Oc2c3cc4cc2Oc2ccc(cc2Cl)C(O[C@@H]2O[C@H](CO)[C@@H](O)[C@H](O)[C@H]2NC(C)=O)C2NC(=O)C(NC(=O)C4NC(=O)C4NC(=O)C(Cc5ccc(c(Cl)c5)O3)NC(=O)C(N)c3ccc(O)c(c3)Oc3cc(O)cc4c3)c3ccc(O)c(c3)-c3c(O)cc(O)cc3C(C(=O)O)NC2=O)O[C@H](CO)[C@@H](O)[C@@H]1O` (some centres unmarked) [DM-TA2-4, de-mannosyl teicoplanin complex component 4], the M.I.C. in [1] is given as 32 microgram/ml; in test [2] (Staph. aureus (10^6 cfu/ml)), 0.25 microgram/ml; in test [2] (setting [13]), 0.5 microgram/ml; in test [2] (setting [14]) it was 0.125 microgram/ml; in [3], 0.5 microgram/ml; in test [4] it was 64 microgram/ml. Besides, the M.I.C. in test [5] is 0.063 microgram/ml; in test [6] it was 0.063 microgram/ml; in test [7], 0.063 microgram/ml; in test [8], above 128 microgram/ml; in [9], above 128 microgram/ml; in test [10], 0.063 microgram/ml. Also, the M.I.C. is reported as above 128 microgram/ml in [11] and 0.125 microgram/ml in test [12].

Regarding `CCCCCCCCCC(=O)N[C@H]1[C@H](Oc2c3cc4cc2Oc2ccc(cc2Cl)C(O[C@@H]2O[C@H](CO)[C@@H](O)[C@H](O)[C@H]2NC(C)=O)C2NC(=O)C(NC(=O)C4NC(=O)C4NC(=O)C(Cc5ccc(c(Cl)c5)O3)NC(=O)C(N)c3ccc(O)c(c3)Oc3cc(O)cc4c3)c3ccc(O)c(c3)-c3c(O)cc(O)cc3C(C(=O)O)NC2=O)O[C@H](CO)[C@@H](O)[C@@H]1O` (some centres unmarked) [DM-TA2-3, de-mannosyl teicoplanin complex component 3], the M.I.C. in [1] amounted to 32 microgram/ml; in [2] (Staph. aureus (10^6 cfu/ml)), 0.125 microgram/ml; in test [2] (setting [13]), 0.5 microgram/ml; in [2] (setting [14]) it was 0.063 microgram/ml; in [3] it was 0.5 microgram/ml; in test [4], 64 microgram/ml. For the same compound, the M.I.C. in test [5] is on record as 0.063 microgram/ml; in [6], 0.063 microgram/ml; in test [7], 0.063 microgram/ml; in test [8], above 128 microgram/ml; in test [9] it was 128 microgram/ml; in test [10], 0.063 microgram/ml. Besides, the values for the M.I.C. in test [11] and in [12] were above 128 microgram/ml and 0.063 microgram/ml, respectively.

Take `CC(=O)N[C@H]1[C@H](OC2c3ccc(c(Cl)c3)Oc3cc4cc(c3O[C@@H]3O[C@H](CO)[C@@H](O)[C@H](O)[C@H]3NC(=O)CCCCCCC(C)C)Oc3ccc(cc3Cl)CC3NC(=O)C(N)c5ccc(O)c(c5)Oc5cc(O)cc(c5)C(NC3=O)C(=O)NC4C(=O)NC3C(=O)NC2C(=O)NC(C(=O)O)c2cc(O)cc(O)c2-c2cc3ccc2O)O[C@H](CO)[C@@H](O)[C@@H]1O` (some centres unmarked) [DM-TA2-2, de-mannosyl teicoplanin complex component 2]: the M.I.C. was 32 microgram/ml in test [1]; 0.125 microgram/ml in [2] (Staph. aureus (10^6 cfu/ml)); 0.5 microgram/ml in test [2] (setting [13]); 0.063 microgram/ml in [2] (setting [14]); 0.5 microgram/ml in test [3]; 64 microgram/ml in test [4]. Also, the M.I.C. was 0.063 microgram/ml in test [5]; 0.063 microgram/ml in [6]; 0.063 microgram/ml in [7]; above 128 microgram/ml in test [8]; above 128 microgram/ml in [9]; 0.063 microgram/ml in test [10]. The M.I.C. is above 128 microgram/ml in [11] and 0.063 microgram/ml in test [12].
